Tests used:
Format in all cases: physicochemical
collagen = experiment: Differential Scanning Calorimetry (DSC) scan of collagen transition temperature; conditions: for compatibility of cytotoxic drug with collagen: judged from collagen transition temperature
Procedure: The phase change is typically a change in the fibril size of the collagen in the composition and can be readily determined by a peak in conventional Differential Scanning Calorimetry (DSC) scans of the aqueous collagen composition. For the purposes of this application, transition temperatures measured by DSC are determined under the following conditions: heating at 10°C. per minute at 25 psi nitrogen (N2) using a DSC 10 instrument available from TA Industries, New Castle, Del., USA.
An aqueous collagen composition was prepared by combining requisite amounts of components under aseptic conditions to provide for an aqueous collagen composition comprising 6.5 weight percent collagen, 0.1M sodium phosphates and 0.045M sodium chloride. A DSC scan of the resulting composition was conducted by adding an aliquot of the composition to the sample holder (DSC pan), hermetically sealing the sample holder, and then placing the holder into a Differential Scanning Calorimeter (Model No. DSC 10 available from TA Instruments, New Castle, Del., USA). The calorimeter measures the transition temperature correlating to a phase change in the collagen composition by recording the temperature where excess heat over baseline is either absorbed or released by the composition.
The DSC scan of this composition was then conducted at from 30° to 70° C. at the rate of 10° C. per minute and the results are illustrated in FIG. 1.
Two additional aqueous compositions were prepared as above with the exception that fluorouracil was incorporated into each of these compositions and the resulting composition comprised collagen (2.2 weight percent), fluorouracil (33.3 mg/mL), 0.033M sodium phosphates and 0.015 M sodium chloride. The compositions were formulated by mixing under aseptic conditions, until homogeneous, 1 volume of an aqueous collagen composition comprising 6.5 weight percent collagen, 0.1M sodium phosphate and 0.045M sodium chloride with 2 volumes of a fluorouracil solution (50 mg/mL) at ambient conditions by recirculation through a static mixer and with magnetic stirring. […]

[1] = optical appearance of aqueous collagen compositions on storage
Procedure: Mixing was conducted by repeated transfers between two syringes connected by a mixing adapter. […] The results of these scans are illustrated in FIG. 5 and 6, respectively.
A second study was conducted to determine the amount of fluorouracil required to effect clarification on an opaque aqueous collagen composition. Specifically, aqueous collagen compositions were formulated to contain collagen (21.7 mg/mL), 0.033M phosphate buffer and varying amounts of fluorouracil. Each composition was then stored at about 2° C. to 8° C. for 17 days and the optical appearance of the composition measured periodically.
Specifically, in this example, the concentration of methotrexate in the collagen composition was varied and the collagen compositions were stored for 1 day and 3 days at either at 2° C. to 8° C. or at room temperature. The results at 3 days were the same as those found after 1 day and, accordingly, Table III below sets forth only the results from day 1.
A second study was conducted by preparing collagen compositions having 0.033M potassium phosphate buffer and […]. The pH of the solution was adjusted by the addition of HCl or NaOH as necessary to modify the pHs of the compositions to approximately 5, 7, 8 and 9. The compositions were stored at either room temperature or at 2-8° C. The optical appearance of these compositions was evaluated at 1 and 11 days after storage.

[2] = optical absorbance at 410 nm (optical opacity) of aqueous collagen compositions, 1 mm pathlength; conditions: 0.25M additive, 6.5 weight percent collagen, pH 9.1, 2° to 8° C., 10 minutes
Procedure: Aliquots (0.5 mL) of each of the compositions were placed in microcuvet having a 1 mm pathlength at different temperatures for 10 minutes wherein the first aliquot was stored at about 12° C, the second aliquot was stored at about 8° C. and the third aliquot was stored at about 4° C. The optical opacity of each sample was then measured at 30 second intervals by determining the absorbance of light (410 nm) through the microcuvet. Lower absorbance in each case corresponds to greater optical clarity at 410 nm.
Three identical aqueous collagen compositions were prepared as above with the exception that the amount of fluorouracil incorporated into the compositions were varied to be 16.65 mg/mL, 22.2 mg/mL and 33.3 mg/mL respectively. The resulting compositions were stored at 4° C. as aliquots (0.5 mL) in microcuvets having a 1 mm pathlength for 10 minutes and the optical opacity of each sample was measured at 30 second intervals by determining the absorbance of light (410 nm) through the microcuvet. Lower absorbance in each case corresponds to greater optical clarity at 410 nm.
Both compositions were then stored at from about 2° to 8° C. as aliquots (0.5 mL) in microcuvets having a 1 mm pathlength for 10 minutes and the optical opacity of each sample was measured at 15 second intervals by determining the absorbance of light (410 nm) through the microcuvet. […]

SMILES: N.N.[Cl][Pt][Cl] [cisplatin, cis-diamino dichlororplatinum (II)]
- cross-linking to collagen (increase in transition temperature over time) (collagen; room temperature, up to 8 hours): cross-linking (i.e., covalent bonding) of the cisplatin to the collagen

SMILES: CN(Cc1cnc2nc(N)nc(N)c2n1)c1ccc(C(=O)N[C@@H](CCC(=O)O)C(=O)O)cc1 [methotrexate]
- compatibility of cytotoxic drug with collagen (collagen): compatible cytotoxic drug
- effect of refrigeration and high concentration on optical clarity ([1]; refrigeration, high concentrations of methotrexate): both refrigeration and high concentrations of methotrexate are effective in effecting optical clarity

SMILES: O=c1[nH]cc(F)c(=O)[nH]1 [fluorouracil, 5-fluoro-2,4-(1H, 3H)pyrimidinedione]
- compatibility of cytotoxic drug with collagen (collagen): compatible cytotoxic drug
- effect of additive on clarifying the collagen composition (FIG. 11) [2]: only fluorouracil has any significant effect on clarifying the collagen composition
- clarifying effect on opaque collagen composition ([1]; fluorouracil at 20 mg/mL, 2° C. to 8° C.): some clarifying affect on the opaque collagen composition

— patent US5750146A, “Translucent collagen formulations with a cytotoxic drug” (Matrix Pharmaceutical, Inc., priority 1995, dated 1998)
